Assay results taken from patent publication US7939320B2, “Astaxanthine biosynthesis in eukaryotes” (Peter und Traudl Engelhorn-Stiftung zur Forderung der …, priority 2005, dated 2011).

Tests used:
[1] = test system: H. pluvialis phytoene desaturase Leu504Arg mutants; experiment: Resistance to norflurazon of Leu504Arg phytoene desaturase mutants compared with wild type; format: cell-based, Haematococcus pluvialis; settings: mutants with leucine to arginine substitution at position 504 of PDS
From the text: The amino acid substitution according to the invention from leucine to arginine at position 504 of the H. pluvialis PDS protein corresponds to the Leu437Arg substitution in Synechococcus PCC7942 (FIG. 2). For this purpose, the Leu codon “CTG” is replaced by the Arg codon “CGC” by directed mutagenesis. This mutation imparts, to the mutants, the highest known resistance factor to norflurazon. The resistance which has been conferred imparts, to the mutants according to the invention, a resistance to norflurazon which is up to 70-fold higher in comparison with the wild type. In accordance with the invention, norflurazon concentrations of […] are used as selection substance.
A portion of the phytoene desaturase 6.1 kilobases in size was isolated from a genomic DNA library of H. pluvialis and subcloned into the multiple cloning site (MCS) of the pBluescriptSK vector (stratagene) via the restriction cleavage sites XbaI and XhoI. A nucleotide substitution from CTG to CGC was carried out via directed mutagenesis with the primers PDS-Qmut-plu2 CCAAGCAGAAGTACCGCGCCTCCATGGAGGG (SEQ ID NO: 8)and PDS-Qmut-min2 CCCTCCATGGAGGCGCGGTACTTCTGCTTGG (SEQ ID NO: 9); the plasmid was named pPDS-Q2. This nucleotide substitution led to an amino acid substitution from leucine to arginine in codon 504 (FIG. 2), and confers to mutants a resistance to norflurazon.

H. pluvialis WT cells = experiment: Growth of H. pluvialis WT cells on OHA plates containing norflurazon; format: cell-based, Haematococcus pluvialis; settings: norflurazon 0.7 μM

CNc1cnn(-c2cccc(C(F)(F)F)c2)c(=O)c1Cl [norflurazon]
resistance to norflurazon, fold higher in comparison with the wild type [1]: up to 70 fold
growth of the WT cells (H. pluvialis WT cells): greatly inhibited
